The values that follow come from US8273773B2 (priority 2008, dated 2012).
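Also: recombinant His-tagged enzyme from E. coli, radiolabeled nucleotide incorporation into acid-insoluble RNA read by scintillation after filtration, no-enzyme background subtracted, activity relative to positive control.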

For the first assay, the target named is T1, HCV polymerase (NS5B570n-Con1) (Hepatitis C virus genotype 1b, UniProt Q9WMX2).
T1 construct: contains a 21 amino acid deletion at the C-terminus relative to the full-length HCV polymerase; 6-histidine (N); made in house; host or cells: E. coli strain BL21(DE) pLysS (pET17b)
Description: biochemical. Particulars: IC50 HCV NS5B RNA Polymerase Assay (values with asterisk), values with asterisk: cIRES RNA template, 3 nM NS5B570n-Con1. Also noted: species or system HCV Con1 strain.
For orientation: IC50 means the point on the concentration scale where inhibition reaches its midpoint. For the compound `Cc1cc(-c2ccc[nH]c2=O)cc(C2(C)CCCC2)c1` [I-27], half-maximal inhibition (IC50) was put at 5380 nM.

Still in this assay, the particulars now being: IC50 HCV NS5B RNA Polymerase Assay, values without asterisk; 20 nM NS5B570n-Con1 enzyme, 20 nM cIRES RNA template.
Take `Cc1cc(-c2ccc(CO)[nH]c2=O)cc(C(C)(C)C)c1` [I-12]: 892 nM corresponded to half-maximal inhibition (IC50). The compound `COc1c(C(=O)N2CCCC(CO)C2)cc(-c2ccc[nH]c2=O)cc1C(C)(C)C` (centres unmarked) [I-24] gave an IC50 of 1530 nM. Consider `Cc1cc(-c2ccc[nH]c2=O)cc(C2(C)CCC2)c1` [I-28], for which the 50% inhibitory concentration (IC50) was found to be 1460 nM. `COCCN(C(=O)c1cc(-c2ccc[nH]c2=O)cc(C(C)(C)C)c1OC)C1CC1` [I-31] displayed an IC50 of 2290 nM. In turn, `COc1c(C(=O)NCCc2ccccc2)cc(-c2ccc[nH]c2=O)cc1C(C)(C)C` [I-34] came in with an IC50 of 1700 nM.

In the case of `COc1c(C(=O)NCC(C)c2ccccc2)cc(-c2ccc[nH]c2=O)cc1C(C)(C)C` (centres unmarked) [I-35], inhibition was half-maximal at 1230 nM (IC50).

As to `COc1c(C(=O)NCc2ccccc2)cc(-c2ccc[nH]c2=O)cc1C(C)(C)C` [I-37], the IC50 worked out at 1010 nM. Consider `COc1c(C(=O)NCc2ccncc2)cc(-c2ccc[nH]c2=O)cc1C(C)(C)C` [I-38], for which half-maximal inhibition (IC50) was put at 932 nM. The same measure, in the same setting: the figure for `COc1c(C(=O)NCc2cncn2C)cc(-c2ccc[nH]c2=O)cc1C(C)(C)C` [I-39] is 1340 nM; for `COc1c(C(=O)NCc2ccc(N(C)C)cc2)cc(-c2ccc[nH]c2=O)cc1C(C)(C)C` [I-40] it is 1600 nM; for `COc1c(C(=O)Nc2ccc(N(C)C)cc2)cc(-c2ccc[nH]c2=O)cc1C(C)(C)C` [I-41] it is 1510 nM. Still for that read-out and setting: next, `COc1c(C(=O)NCCN(C)C)cc(-c2ccc[nH]c2=O)cc1C(C)(C)C` [I-43]: 1750 nM; `COc1c(C(=O)NCCCN2CCCC2=O)cc(-c2ccc[nH]c2=O)cc1C(C)(C)C` [I-44]: 1200 nM; `CC(C)(C)c1cc(-c2ccc[nH]c2=O)cc(NC(=O)c2ccccc2)c1F` [I-60]: 1090 nM. The same measure, in the same setting: the figure for `COc1c(C(=O)NC2CCCN(C)C2)cc(-c2ccc[nH]c2=O)cc1C(C)(C)C` (centres unmarked) [I-77] is 1830 nM; for `COc1c(C(=O)Nc2cccc(CO)c2C)cc(-c2ccc[nH]c2=O)cc1C(C)(C)C` [I-78] it is 1130 nM; for `COc1c(C(=O)Nc2ccccc2C)cc(-c2ccc[nH]c2=O)cc1C(C)(C)C` [I-79] it is 1170 nM. For the compound `COc1c(C(=O)NC2CCN(C)CC2)cc(-c2ccc[nH]c2=O)cc1C(C)(C)C` [I-91], half-maximal inhibition (IC50) required 1480 nM.

Turning to `COc1c(C(=O)NC2CCC(N(C)C)CC2)cc(-c2ccc[nH]c2=O)cc1C(C)(C)C` (centres unmarked) [I-92], the IC50 was found to be 1690 nM. On the same count and under the same terms, next, `COc1c(C(=O)NC2CCCCC2CO)cc(-c2ccc[nH]c2=O)cc1C(C)(C)C` (centres unmarked) [I-93]: 1900 nM. Turning to `COc1c(CCc2ccc(NS(C)(=O)=O)cc2)cc(-c2cc(Cl)c[nH]c2=O)cc1C(C)(C)C` [I-95, N-(4-{2-[3-tert-Butyl-5-(5-chloro-2-oxo-1,2-dihydro-pyridin-3-yl)-2-methoxy-phenyl]-ethyl}-phenyl)-methanesulfonamide], the IC50 amounted to 17 nM. The compound `COc1c(C(=O)Nc2cccc(CO)c2)cc(-c2ccc[nH]c2=O)cc1C(C)(C)C` [I-97] came in with an IC50 of 384 nM. With `COc1c(N(C)C(=O)c2ccc(NS(C)(=O)=O)cc2)cc(-c2ccc[nH]c2=O)cc1C(C)(C)C` [I-104, N-[3-tert-Butyl-2-methoxy-5-(2-oxo-1,2-dihydro-pyridin-3-yl)-phenyl]-4-methanesulfonylamino-N-methyl-benzamide], the midpoint of inhibition, the IC50, lay at 107 nM. `CCc1ccc(-c2cc(C(C)(C)C)ccc2OC)c(=O)[nH]1` [I-105, 3-(5-tert-Butyl-2-methoxy-phenyl)-6-ethyl-1H-pyridin-2-one]: the IC50 was 6350 nM.

`COc1c(C(=O)Nc2ccc(OCC(N)=O)cc2)cc(-c2ccc[nH]c2=O)cc1C(C)(C)C` [I-113, 3-tert-Butyl-N-(4-carbamoylmethoxy-phenyl)-2-methoxy-5-(2-oxo-1,2-dihydro-pyridin-3-yl)-benzamide] returned an IC50 of 133 nM. Still for that read-out and setting: next, `C/C(=C\c1cc(C(C)(C)C)cc(-c2ccc[nH]c2=O)c1O)c1ccc(NS(C)(=O)=O)cc1` [I-143]: 308 nM; `COc1c(/C=C(/CO)c2ccc(NS(C)(=O)=O)cc2)cc(-c2ccc[nH]c2=O)cc1C(C)(C)C` [I-145]: 53 nM. For `CC(C)(C)c1cc(/C=C/c2ccc(NS(C)(=O)=O)c(F)c2)cc(-c2ccc[nH]c2=O)c1` [I-146, N-(4-{(E)-2-[3-tert-Butyl-5-(2-oxo-1,2-dihydro-pyridin-3-yl)-phenyl]-vinyl}-2-fluoro-phenyl)-methanesulfonamide], the IC50 is 3 nM. As for `COc1c(/C=C(\CO)c2ccc(NS(C)(=O)=O)cc2)cc(-c2ccc[nH]c2=O)cc1C(C)(C)C` [I-149, N-(4-{(Z)-2-[3-tert-Butyl-2-methoxy-5-(2-oxo-1,2-dihydro-pyridin-3-yl)-phenyl]-1-hydroxymethyl-vinyl}-phenyl)-methanesulfonamide], the IC50 came out at 26 nM. On to `COc1c(/C=C/c2ccc(NS(=O)(=O)CC(F)(F)F)cc2)cc(-c2cc(F)c[nH]c2=O)cc1C(C)(C)C` [I-152], for which the IC50 came out at 16 nM. As to `COc1c(/C=C/c2ccc(NS(=O)(=O)CC3CC3)cc2)cc(-c2cc(F)c[nH]c2=O)cc1C(C)(C)C` [I-153], the IC50 amounted to 8 nM.

In the case of `COc1c(/C=C/c2ccc(NS(=O)(=O)C3CC3)cc2)cc(-c2cc(F)c[nH]c2=O)cc1C(C)(C)C` [I-155, Cyclopropanesulfonic acid (4-{(E)-2-[3-tert-butyl-5-(5-fluoro-2-oxo-1,2-dihydro-pyridin-3-yl)-2-methoxy-phenyl]-vinyl}-phenyl)-amide], the midpoint of inhibition, the IC50, lay at 3 nM. As for `COCCCS(=O)(=O)Nc1ccc(/C=C/c2cc(-c3cc(F)c[nH]c3=O)cc(C(C)(C)C)c2OC)cc1` [I-156], the IC50 was found to be 6 nM.

In turn, `COC(=O)c1cc(NS(C)(=O)=O)ccc1/C=C/c1cc(-c2ccc[nH]c2=O)cc(C(C)(C)C)c1` [I-158] showed an IC50 of 19 nM. `CC(C)(C)c1cc(/C=C/c2ccc(NS(C)(=O)=O)cc2C(=O)O)cc(-c2ccc[nH]c2=O)c1` [I-159, 2-{(E)-2-[3-tert-Butyl-5-(2-oxo-1,2-dihydro-pyridin-3-yl)-phenyl]-vinyl}-5-methanesulfonylamino-benzoic acid] displayed an IC50 of 8 nM. Still for that read-out and setting: next, `COc1c(/C=C/c2ccc(NS(C)(=O)=O)cc2CNC(C)=O)cc(-c2ccc[nH]c2=O)cc1C(C)(C)C` [I-160, N-(2-{(E)-2-[3-tert-Butyl-2-methoxy-5-(2-oxo-1,2-dihydro-pyridin-3-yl)-phenyl]-vinyl}-5-methanesulfonylamino-benzyl)-acetamide]: 4 nM; `CC(C)(C)c1cc(/C=C/c2ccc(NS(C)(=O)=O)cn2)c(O)c(-c2ccc[nH]c2=O)c1` [I-167, N-(6-{(E)-2-[5-tert-Butyl-2-hydroxy-3-(2-oxo-1,2-dihydro-pyridin-3-yl)-phenyl]-vinyl}-pyridin-3-yl)-methanesulfonamide]: 21 nM. Consider `COc1c(/C=C/c2ccc(NC(C)=O)cn2)cc(-c2cc(F)c[nH]c2=O)cc1C(C)(C)C` [I-169, N-(6-{(E)-2-[3-tert-Butyl-5-(5-fluoro-2-oxo-1,2-dihydro-pyridin-3-yl)-2-methoxy-phenyl]-vinyl}-pyridin-3-yl)-acetamide], for which it took 29 nM to reach half-maximal inhibition (IC50). The compound `COc1c(/C=C/c2ccc(NS(C)(=O)=O)cn2)cc(-c2cc(F)c[nH]c2=O)cc1C(C)(C)C` [I-170, N-(6-{(E)-2-[3-tert-Butyl-5-(5-fluoro-2-oxo-1,2-dihydro-pyridin-3-yl)-2-methoxy-phenyl]-vinyl}-pyridin-3-yl)-methanesulfonamide] came in with an IC50 of 6 nM. As for `COc1c(/C=C/c2ccc(N)nc2)cc(-c2ccc[nH]c2=O)cc1C(C)(C)C` [I-171], inhibition was half-maximal at 4 nM (IC50).

Compound `COc1c(/C=C/c2ccc(NS(C)(=O)=O)nc2)cc(-c2ccc[nH]c2=O)cc1C(C)(C)C` [I-172] came in with an IC50 of 3 nM. In the case of `COc1c(/C=C/c2ccc(NS(C)(=O)=O)nc2)cc(-c2cc(F)c[nH]c2=O)cc1C(C)(C)C` [I-175], half-maximal inhibition (IC50) was put at 6 nM.

For the compound `COc1c(CC(C#N)c2ccc(NS(C)(=O)=O)cc2)cc(-c2ccc[nH]c2=O)cc1C(C)(C)C` (centres unmarked) [I-177, N-(4-{2-[3-tert-Butyl-2-methoxy-5-(2-oxo-1,2-dihydro-pyridin-3-yl)-phenyl]-1-cyano-ethyl}-phenyl)-methanesulfonamide], the IC50 worked out at 8 nM.

In turn, `COc1c(CC(C(N)=O)c2ccc(NS(C)(=O)=O)cc2)cc(-c2ccc[nH]c2=O)cc1C(C)(C)C` (centres unmarked) [I-178] registered an IC50 of 15 nM.

For `COc1c(CC(C(=O)O)c2ccc(NS(C)(=O)=O)cc2)cc(-c2ccc[nH]c2=O)cc1C(C)(C)C` (centres unmarked) [I-179, 3-[3-tert-Butyl-2-methoxy-5-(2-oxo-1,2-dihydro-pyridin-3-yl)-phenyl]-2-(4-methanesulfonylamino-phenyl)-propionic acid], the IC50 stood at 8 nM. Still for that read-out and setting: the figure for `COc1c(/C=C/c2ccc(NS(C)(=O)=O)cc2)cc(-c2ccc[nH]c2=O)cc1C(C)(O)C(F)(F)F` (centres unmarked) [I-180] is 5 nM.

Staying with this assay, now noted: read-out: IC50 HCV NS5B RNA Polymerase Assay; values without asterisk; 20 nM NS5B570n-Con1 enzyme, 20 nM cIRES RNA template.
Turning to `COc1c(/C=C/c2ccc(NS(=O)(=O)C(F)(F)F)cc2)cc(-c2cc(F)c[nH]c2=O)cc1C(C)(C)C` [I-154], the IC50 was found to be 10 nM. Turning to `COc1c(/C=C/c2ccc(N)nc2)cc(-c2cc(F)c[nH]c2=O)cc1C(C)(C)C` [I-174], the IC50 came to 12 nM.

As for `COc1c(CC(CO)c2ccc(NS(C)(=O)=O)cc2)cc(-c2ccc[nH]c2=O)cc1C(C)(C)C` (centres unmarked) [I-176], the IC50 is 6 nM.

Staying with this assay, now noted: values without asterisk; 20 nM NS5B570n-Con1 enzyme, 20 nM cIRES RNA template; read-out: IC50 HCV NS5B RNA Polymerase Assay.
For the compound `COc1cc(C(=O)O)ccc1[N+](=O)[O-]` [I-130], the IC50 came to 3 nM. `O=C(O)c1ccc([N+](=O)[O-])c(Cl)c1` [I-131]: the IC50 stood at 3 nM. Same read-out and setting: the figure for `O=C(O)c1ccc([N+](=O)[O-])cn1` [I-136] is 5 nM.
